Structures are written as SMILES.

For the test, the target named is T1, recombinant HIV reverse transcriptase (HIV RTR) (Human immunodeficiency virus type 1 group M subtype B, UniProt P04585).
T1 construct: recombinant HIV reverse transcriptase
Put plainly: Reverse Transcriptase Assay (incorporation of tritiated deoxyguanosine monophosphate into acid-precipitable cDNA). It is filed as biochemical. To be noted: for inhibition of incorporation of deoxyguanosine monophosphate by HIV reverse transcriptase (in words): at the Km values of dGTP and poly r(C).oligo d(G)12-18; for IC50: poly r(C).oligo d(G)12-18 template, dGTP at about Km, 37° C., 45 minutes, read-out: calculated IC50. Here is the method:
The assay measures the incorporation of tritiated deoxyguanosine monophosphate by recombinant HIV reverse transcriptase (HIV RTR) (or other RT) into acid-precipitable cDNA at the Km values of dGTP and poly r(C).oligo d(G)12-18.
Thirty uL of a reaction mixture containing equal volumes of: 500 mM Tris.HCl (pH 8.2), 300 mM MgCl2, 1200 mM KCl, 10 mM DTT, 400 μg/mL poly r(c).oligo d(G) [prepared by dissolving 1.5 mg (25 U) poly r(C).oligo d(G) in 1.5 ml sterile distilled H2 O and diluting to 400 μg/ml], 0.1 μCi/μl [^3 H] dGTP, 160 μM dGTP, was added to 10 μl sterile distilled H2 O, 2.5 μl of potential inhibitor. Ten μL of 3.2 nM purified HIV RTR were added to start the reaction. The mixture was incubated at 37° C. for 45 minutes.
After incubation was complete, the tubes were cooled in ice for 5 minutes. Ice-cold 13% TCA containing 10 mM NaPPi (200 μl) was added and the mixture incubated on ice for 30 minutes. The precipitated cDNA was removed by filtration using presoaked glass filters [TCA, NaPPi ]. The precipitate was then washed with 1N HCl, 10 mM NaPPi. The filter discs were then counted in a Packard scintillation counter.
Under these conditions [dGTP] and poly r(C).oligo d(G)12-18 each are approximately equal to the appropriate Km value. Approximately 5-6,000 cpm of [^3 H] GMP are incorporated into acid-precipitable material. The RT reaction is concentration- and time-dependent.

Take `Cc1[nH]c(=O)c(CCc2nc3ccccc3o2)cc1C(C)O` (racemic) [Compound (I), (+/-)-3-[2-(benzoxazol-2-yl)ethyl]-5-(1-hydroxyethyl)-6-methyl-2(1H)-pyridinone]: the “inhibition of incorporation of deoxyguanosine monophosphate by HIV reverse transcriptase (in words)” value is recorded as “inhibit this incorporation” and the IC50 is approximately 18.7 µM.

In the case of `CCc1cc(CCc2nc3ccccc3o2)c(=O)[nH]c1CO` [Compound (II), 3-[2-(benzoxazol-2-yl)ethyl]-5-ethyl-6-hydroxymethyl-2(1H)-pyridinone], the “inhibition of incorporation of deoxyguanosine monophosphate by HIV reverse transcriptase (in words)” value was “inhibit this incorporation” and the IC50 is approximately 0.044 µM.

What is called IC50 is the midpoint of a concentration-inhibition curve.
